≈ marks a conversion by molar mass, not a printed value.
Assays:
Format in all cases: functional
Enterococcus faecalis = experiment: In vitro antibacterial activity against Enterococcus faecalis C6291 (E.f.1).
Streptococcus pyogenes [1] = experiment: In vitro antibacterial activity against Streptococcus pyogenes C6003 (S.p.2).
Staphylococcus aureus [2] = experiment: In vitro antibacterial activity against ciprofloxacin-resistant Staphylococcus aureus (CRSA) C6043.
Streptococcus pyogenes [3] = experiment: In vitro antibacterial activity against Streptococcus pyogenes ATCC 8668 (S.p.1).
Staphylococcus aureus [4] = experiment: In vitro antibacterial activity against methicillin-susceptible Staphylococcus aureus (MSSA) C2214.
Enterococcus faecium [5] = experiment: In vitro antibacterial activity against Enterococcus faecium C6301 (E.f.2).
[6] = system: Staphylococcus epidermidis; experiment: In vitro antibacterial activity against Staphylococcus epidermis (S.e.1) […].
Enterococcus faecium [7] = experiment: In vitro antibacterial activity against vancomycin-resistant Enterococcus faecium C6487 (VRE).
[8] = system: Staphylococcus epidermidis; experiment: In vitro antibacterial activity against Staphylococcus epidermis (S.e.2) C2235.
Staphylococcus aureus [9] = experiment: In vitro antibacterial activity against Staphylococcus aureus (S. a.) ATCC 29213.
Staphylococcus aureus [10] = experiment: In vitro antibacterial activity against methicillin-resistant Staphylococcus aureus (MRSA) C6068.

Row | SMILES | MIC (Enterococcus faecalis) | MIC (Streptococcus pyogenes [1]) | MIC (Staphylococcus aureus [2]) | MIC (Streptococcus pyogenes [3]) | MIC (Staphylococcus aureus [4]) | MIC (Enterococcus faecium [5]) | MIC [6] | MIC (Enterococcus faecium [7]) | MIC [8] | MIC (Staphylococcus aureus [9]) | MIC (Staphylococcus aureus [10])
1 | COc1ccc(-c2cc(CN3CCN(c4ccc(N5C[C@H](CNC(C)=O)OC5=O)cc4F)CC3)on2)cc1OC | 4 µg/mL (≈ 7.23 µM) | 1 µg/mL (≈ 1.81 µM) | 4 µg/mL (≈ 7.23 µM) | 2 µg/mL (≈ 3.61 µM) | 4 µg/mL (≈ 7.23 µM) | 4 µg/mL (≈ 7.23 µM) | 2 µg/mL (≈ 3.61 µM) | 2 µg/mL (≈ 3.61 µM) | 4 µg/mL (≈ 7.23 µM) | 4 µg/mL (≈ 7.23 µM) | 2 µg/mL (≈ 3.61 µM)
2 | COc1cc(CN2CCN(c3ccc(N4C[C@H](CNC(C)=O)OC4=O)cc3F)CC2)on1 | 8 µg/mL (≈ 17.9 µM) | 1 µg/mL (≈ 2.23 µM) | 8 µg/mL (≈ 17.9 µM) | 1 µg/mL (≈ 2.23 µM) | 8 µg/mL (≈ 17.9 µM) | 4 µg/mL (≈ 8.94 µM) | 2 µg/mL (≈ 4.47 µM) | 4 µg/mL (≈ 8.94 µM) | 4 µg/mL (≈ 8.94 µM) | 8 µg/mL (≈ 17.9 µM) | 4 µg/mL (≈ 8.94 µM)
3 | CC(=O)NC[C@H]1CN(c2ccc(N3CCN(C(=O)CO)CC3)c(F)c2)C(=O)O1 [EPEREZOLID] | 2 µg/mL (≈ 5.07 µM) | 0.5 µg/mL (≈ 1.27 µM) | 2 µg/mL (≈ 5.07 µM) | 0.25 µg/mL (≈ 0.634 µM) | 2 µg/mL (≈ 5.07 µM) | 1 µg/mL (≈ 2.54 µM) | 0.5 µg/mL (≈ 1.27 µM) | 1 µg/mL (≈ 2.54 µM) | 1 µg/mL (≈ 2.54 µM) | 2 µg/mL (≈ 5.07 µM) | 1 µg/mL (≈ 2.54 µM)
4 | CC(=O)NC[C@H]1CN(c2ccc(N3CCN(Cc4cc(-c5ccc(Oc6ccccc6)cc5)no4)CC3)c(F)c2)C(=O)O1 | 4 µg/mL (≈ 6.83 µM) | 1 µg/mL (≈ 1.71 µM) | 8 µg/mL (≈ 13.7 µM) | 1 µg/mL (≈ 1.71 µM) | 8 µg/mL (≈ 13.7 µM) | 4 µg/mL (≈ 6.83 µM) | 2 µg/mL (≈ 3.42 µM) | 4 µg/mL (≈ 6.83 µM) | 4 µg/mL (≈ 6.83 µM) | 8 µg/mL (≈ 13.7 µM) | 4 µg/mL (≈ 6.83 µM)
5 | CC(=O)NC[C@H]1CN(c2ccc(N3CCN(C(=O)c4ccno4)CC3)c(F)c2)C(=O)O1 | 2 µg/mL (≈ 4.64 µM) | 0.5 µg/mL (≈ 1.16 µM) | 2 µg/mL (≈ 4.64 µM) | 0.5 µg/mL (≈ 1.16 µM) | 2 µg/mL (≈ 4.64 µM) | 1 µg/mL (≈ 2.32 µM) | 1 µg/mL (≈ 2.32 µM) | 22 µg/mL (≈ 51 µM) | 1 µg/mL (≈ 2.32 µM) | 2 µg/mL (≈ 4.64 µM) | 1 µg/mL (≈ 2.32 µM)
6 | COc1cccc(-c2cc(CN3CCN(c4ccc(N5C[C@H](CNC(C)=O)OC5=O)cc4F)CC3)on2)c1 | 8 µg/mL (≈ 15.3 µM) | 1 µg/mL (≈ 1.91 µM) | 2 µg/mL (≈ 3.82 µM) | 4 µg/mL (≈ 7.64 µM) | 4 µg/mL (≈ 7.64 µM) | 4 µg/mL (≈ 7.64 µM) | 4 µg/mL (≈ 7.64 µM) | 1 µg/mL (≈ 1.91 µM) | 4 µg/mL (≈ 7.64 µM) | 4 µg/mL (≈ 7.64 µM) | 4 µg/mL (≈ 7.64 µM)
7 | CC(=O)NC[C@H]1CN(c2ccc(N3CCN(C(=O)c4cccs4)CC3)c(F)c2)C(=O)O1 | 2 µg/mL (≈ 4.48 µM) | 1 µg/mL (≈ 2.24 µM) | 2 µg/mL (≈ 4.48 µM) | 1 µg/mL (≈ 2.24 µM) | 2 µg/mL (≈ 4.48 µM) | 2 µg/mL (≈ 4.48 µM) | 0.5 µg/mL (≈ 1.12 µM) | 2 µg/mL (≈ 4.48 µM) | 1 µg/mL (≈ 2.24 µM) | 2 µg/mL (≈ 4.48 µM) | 1 µg/mL (≈ 2.24 µM)
8 | CC(=O)NC[C@H]1CN(c2ccc(N3CCN(Cc4cc(-c5ccccn5)no4)CC3)c(F)c2)C(=O)O1 | 2 µg/mL (≈ 4.04 µM) | 0.5 µg/mL (≈ 1.01 µM) | 2 µg/mL (≈ 4.04 µM) | 0.5 µg/mL (≈ 1.01 µM) | 4 µg/mL (≈ 8.09 µM) | 2 µg/mL (≈ 4.04 µM) | 1 µg/mL (≈ 2.02 µM) | 2 µg/mL (≈ 4.04 µM) | 1 µg/mL (≈ 2.02 µM) | 2 µg/mL (≈ 4.04 µM) | 2 µg/mL (≈ 4.04 µM)
9 | CC(=O)NC[C@H]1CN(c2ccc(N3CCN(C(=O)c4cc(C(N)=O)no4)CC3)c(F)c2)C(=O)O1 | 1 µg/mL (≈ 2.11 µM) | 0.25 µg/mL (≈ 0.527 µM) | 2 µg/mL (≈ 4.22 µM) | 0.25 µg/mL (≈ 0.527 µM) | 2 µg/mL (≈ 4.22 µM) | 1 µg/mL (≈ 2.11 µM) | 0.5 µg/mL (≈ 1.05 µM) | 1 µg/mL (≈ 2.11 µM) | 0.5 µg/mL (≈ 1.05 µM) | 2 µg/mL (≈ 4.22 µM) | 1 µg/mL (≈ 2.11 µM)
10 | CC(=O)NC[C@H]1CN(c2ccc(N3CCN(C(=O)c4nccs4)CC3)c(F)c2)C(=O)O1 | 4 µg/mL (≈ 8.94 µM) | 1 µg/mL (≈ 2.23 µM) | 4 µg/mL (≈ 8.94 µM) | 1 µg/mL (≈ 2.23 µM) | 4 µg/mL (≈ 8.94 µM) | 4 µg/mL (≈ 8.94 µM) | 1 µg/mL (≈ 2.23 µM) | 4 µg/mL (≈ 8.94 µM) | 2 µg/mL (≈ 4.47 µM) | 4 µg/mL (≈ 8.94 µM) | 2 µg/mL (≈ 4.47 µM)
11 | CC(=O)NC[C@H]1CN(c2ccc(N3CCN(C(=O)c4cc(-c5nccs5)no4)CC3)c(F)c2)C(=O)O1 | 1 µg/mL (≈ 1.94 µM) | 0.5 µg/mL (≈ 0.972 µM) | 0.5 µg/mL (≈ 0.972 µM) | 0.25 µg/mL (≈ 0.486 µM) | 1 µg/mL (≈ 1.94 µM) | 1 µg/mL (≈ 1.94 µM) | 0.5 µg/mL (≈ 0.972 µM) | 0.5 µg/mL (≈ 0.972 µM) | 0.5 µg/mL (≈ 0.972 µM) | 2 µg/mL (≈ 3.89 µM) | 0.5 µg/mL (≈ 0.972 µM)
12 | CC(=O)NC[C@H]1CN(c2ccc(N3CCN(C(=O)c4cc(-c5csnn5)no4)CC3)c(F)c2)C(=O)O1 | 1 µg/mL (≈ 1.94 µM) | 0.5 µg/mL (≈ 0.97 µM) | 2 µg/mL (≈ 3.88 µM) | 0.5 µg/mL (≈ 0.97 µM) | 2 µg/mL (≈ 3.88 µM) | 1 µg/mL (≈ 1.94 µM) | 0.5 µg/mL (≈ 0.97 µM) | 1 µg/mL (≈ 1.94 µM) | 1 µg/mL (≈ 1.94 µM) | 2 µg/mL (≈ 3.88 µM) | 1 µg/mL (≈ 1.94 µM)
13 | CN[C@H](CC(C)C)C(=O)N[C@H]1C(=O)N[C@@H](CC(N)=O)C(=O)N[C@H]2C(=O)N[C@H]3C(=O)N[C@H](C(=O)N[C@H](C(=O)O)c4cc(O)cc(O)c4-c4cc3ccc4O)[C@H](O)c3ccc(c(Cl)c3)Oc3cc2cc(c3O[C@@H]2O[C@H](CO)[C@@H](O)[C@H](O)[C@H]2O[C@H]2C[C@](C)(N)[C@H](O)[C@H](C)O2)Oc2ccc(cc2Cl)[C@H]1O [VANCOMYCIN] | 1 µg/mL (≈ 0.69 µM) | 0.25 µg/mL (≈ 0.173 µM) |  | 0.25 µg/mL (≈ 0.173 µM) |  |  | 0.5 µg/mL (≈ 0.345 µM) | > 32 µg/mL |  |  | 

Source: ChEMBL document CHEMBL1131977, “Synthesis and in vitro activity of new oxazolidinone antibacterial agents having substituted isoxazoles” (1999)
